We go through 29 compounds from patent US10053431B2, “Tetrahydro-benzodiazepinones” (priority 2013, dated 2018).

Where a name gives a salt, the structure may show the parent alone. Read-outs that look alike come from different tables or passages of the source. Where only a bound is given, the exact number is not on record here.

One test addresses BIR2 domain of XIAP (Homo sapiens (Human), UniProt P98170, C202A/C213G). As to the kind of experiment: TR-FRET assay for BIR2 (inhibition of binding of XIAP BIR2 domain to SMAC-derived Peptide A). The settings on record: 6x His-tagged BIR2 domain (aa 124-240 of XIAP) 10 nM, Peptide A 20 nM, TR-FRET; read-out: IC50 BIR2. A general note: TR-FRET usually uses a lanthanide donor and a delayed reading to cut background.

Another test has as its target BIR3 domain of XIAP (Homo sapiens (Human), UniProt P98170). As to the kind of experiment: TR-FRET assay for BIR3 (inhibition of binding of XIAP BIR3 domain to SMAC-derived Peptide A).
The mark [1] stands for this setting: 6x His-tagged BIR3 domain (aa 241-356 of XIAP) 10 nM, Peptide A 20 nM, TR-FRET.

Sequence of BIR3 domain of XIAP (P98170 241-356 with tags or gaps limits assumed): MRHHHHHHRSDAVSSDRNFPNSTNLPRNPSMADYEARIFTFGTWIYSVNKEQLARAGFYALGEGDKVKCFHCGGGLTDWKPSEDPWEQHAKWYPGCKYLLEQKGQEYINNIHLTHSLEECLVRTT
Sequence of BIR2 domain of XIAP (P98170 124-240 with tags or gaps C202A/C213G limits assumed): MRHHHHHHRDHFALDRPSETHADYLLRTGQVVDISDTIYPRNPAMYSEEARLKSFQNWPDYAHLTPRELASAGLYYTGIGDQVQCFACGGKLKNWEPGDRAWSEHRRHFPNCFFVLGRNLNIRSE

Consider `CN[C@@H](C)C(=O)N[C@H]1CN2C(=O)CCNC(=O)c3ccc4c(c(OC)ccc4c3)CN(C1=O)c1ccccc12` [Example 63, Cyclic-5-[(S)-5-(3-Amino-propionyl)-3-((S)-2-methylamino-propionylamino)-2-oxo-2,3,4,5-tetrahydro-benzo[b][1,4]diazepin-1-ylmethyl]-6-methoxy-naphthalene-2-carboxylic amide hydrochloride], for which the IC50 (commonly the midpoint of a concentration-inhibition curve) on BIR2 domain of XIAP turned out to be 19 nM; on BIR3 domain of XIAP (setting [1]), 43000 nM.

For the compound `COc1ccc2ccccc2c1CN1C(=O)[C@@H](NC(=O)[C@H](C)N)CN(C(=O)c2ccc(N)cc2)c2ccccc21` [Example 65, (S)-2-amino-N—((S)-5-(4-aminobenzoyl)-1-((2-methoxynaphthalen-1-yl)methyl)-2-oxo-2,3,4,5-tetrahydro-1H-benzo[b][1,4]diazepin-3-yl)propanamide], the IC50 on BIR2 domain of XIAP was determined as 7 nM; on BIR3 domain of XIAP (setting [1]), 23600 nM.

For the compound `CN[C@@H](C)C(=O)N[C@H]1CN(C(=O)c2ccc(N)cc2)c2ccccc2N(Cc2c(C)ccc3ccccc23)C1=O` [Example 67, (S)—N—((S)-5-(4-aminobenzoyl)-1-((2-methylnaphthalen-1-yl)methyl)-2-oxo-2,3,4,5-tetrahydro-1H-benzo[b][1,4]diazepin-3-yl)-2-(methylamino)propanamide hydrochloride], the results for the IC50 on BIR2 domain of XIAP and on BIR3 domain of XIAP (setting [1]) were 22 nM and above 54800 nM, respectively.

Turning to `CN[C@@H](C)C(=O)N[C@H]1CN(C(=O)c2ccc(C(C)=O)cc2)c2ccccc2N(Cc2noc3cc(Br)ccc23)C1=O` [Example 69e], the IC50 turned out to be 49 nM at BIR2 domain of XIAP and 50300 nM on BIR3 domain of XIAP (setting [1]).

Regarding `CN[C@@H](C)C(=O)N[C@H]1CN(C(=O)c2ccc(C(C)=O)cc2)c2ccccc2N(Cc2c(OC)ccc3ccccc23)C1=O` [Example 69g], the IC50 on BIR2 domain of XIAP turned out to be 11 nM; at BIR3 domain of XIAP (setting [1]) it was 42500 nM.

Regarding `CC(=O)c1ccc(C(=O)N2C[C@H](NC(=O)[C@H](C)N)C(=O)N(Cc3c(OCC(F)(F)F)ccc4ccccc34)c3ccccc32)cc1` [Example 69h], the results for the IC50 on BIR2 domain of XIAP and on BIR3 domain of XIAP (setting [1]) were 20 nM and 30300 nM, respectively.

As for `CC(=O)c1ccc(C(=O)N2C[C@H](NC(=O)[C@H](C)N)C(=O)N(Cc3c(OC(F)F)ccc4ccccc34)c3ccccc32)cc1` [Example 69i], the IC50 turned out to be 39 nM on BIR2 domain of XIAP and 52000 nM on BIR3 domain of XIAP (setting [1]).

On to `COc1ccc2c(CN3C(=O)[C@@H](NC(=O)[C@H](C)N)CN(C(=O)c4ccc(C(C)=O)cc4)c4ccccc43)cc(=O)oc2c1` [Example 69j], for which the IC50 was 213 nM on BIR2 domain of XIAP and above 54800 nM on BIR3 domain of XIAP (setting [1]).

Consider `CC(=O)c1ccc(C(=O)N2C[C@H](NC(=O)[C@H](C)N)C(=O)N(Cc3noc4ccccc34)c3ccccc32)cc1` [Example 69k], for which the IC50 on BIR2 domain of XIAP was 27 nM; at BIR3 domain of XIAP (setting [1]), above 54800 nM.

As for `CN[C@@H](C)C(=O)N[C@H]1CN(C(=O)c2ccc(N)cc2)c2ccccc2N(Cc2noc3ccccc23)C1=O` [Example 71, (S)—N—((S)-5-(4-Aminobenzoyl)-1-(benzo[d]isoxazol-3-ylmethyl)-2-oxo-2,3,4,5-tetrahydro-1H-benzo[b][1,4]diazepin-3-yl)-2-(methylamino)propanamide hydrochloride], the IC50 at BIR2 domain of XIAP is 64 nM; at BIR3 domain of XIAP (setting [1]), above 54800 nM.

As for `CN[C@@H](C)C(=O)N[C@H]1CN(C(=O)c2ccc(C#N)cc2)c2ccccc2N(Cc2c(OC(F)F)ccc3ccccc23)C1=O` [Example 74, (S)—N—((S)-5-(4-Cyanobenzoyl)-1-((2-(difluoromethoxy)naphthalen-1-yl)methyl)-2-oxo-2,3,4,5-tetrahydro-1H-benzo[b][1,4]diazepin-3-yl)-2-(methylamino)propanamide], the IC50 at BIR2 domain of XIAP is 49 nM; on BIR3 domain of XIAP (setting [1]), above 54800 nM.

As to `CN[C@@H](C)C(=O)N[C@H]1CN(C(=O)c2ccc(NC(C)=O)cc2)c2ccccc2N(Cc2c(OC)ccc3cc(Br)ccc23)C1=O` [Example 76d], the IC50 on BIR2 domain of XIAP amounted to 5 nM; at BIR3 domain of XIAP (setting [1]), 33200 nM.

Turning to `CN[C@@H](C)C(=O)N[C@H]1CN(Cc2ccc(C#N)cc2)c2ccccc2N(Cc2c(OC)ccc3cc(Br)ccc23)C1=O` [Example 78, (S)—N—((S)-1-((6-Bromo-2-methoxynaphthalen-1-yl)methyl)-5-(4-cyanobenzyl)-2-oxo-2,3,4,5-tetrahydro-1H-benzo[b][1,4]diazepin-3-yl)-2-(methylamino)propanamide trifluoroacetate], the IC50 is 30 nM on BIR2 domain of XIAP and 17100 nM on BIR3 domain of XIAP (setting [1]).

On to `CC[C@H](NC)C(=O)N[C@H]1CN(C(=O)c2ccc(C(C)=O)cc2)c2ccccc2N(Cc2c(OC)ccc3cc(Br)ccc23)C1=O` [Example 79, (S)—N—((S)-5-(4-Acetylbenzoyl)-1-((6-bromo-2-methoxynaphthalen-1-yl)methyl)-2-oxo-2,3,4,5-tetrahydro-1H-benzo[b][1,4]diazepin-3-yl)-2-(methylamino)butanamide hydrochloride], for which the IC50 was 1 nM on BIR2 domain of XIAP and 3480 nM on BIR3 domain of XIAP (setting [1]).

In the case of `CCN[C@@H](C)C(=O)N[C@H]1CN(C(=O)c2ccc(C(C)=O)cc2)c2ccccc2N(Cc2c(OC)ccc3cc(Br)ccc23)C1=O` [Example 80, (S)—N—((S)-5-(4-Acetylbenzoyl)-1-((6-bromo-2-methoxynaphthalen-1-yl)methyl)-2-oxo-2,3,4,5-tetrahydro-1H-benzo[b][1,4]diazepin-3-yl)-2-(ethylamino)propanamide hydrochloride], the IC50 at BIR2 domain of XIAP was 14 nM; on BIR3 domain of XIAP, above 54800 nM.

Turning to `CN[C@@H](C)C(=O)N[C@H]1CN(C(=O)CS(C)(=O)=O)c2ccccc2N(Cc2c(OC)ccc3ccccc23)C1=O` [Example 82, (S)—N—((S)-1-((2-Methoxynaphthalen-1-yl)methyl)-5-(2-(methylsulfonyl)acetyl)-2-oxo-2,3,4,5-tetrahydro-1H-benzo[b][1,4]diazepin-3-yl)-2-(methylamino)propanamide hydrochloride], the IC50 is 29 nM at BIR2 domain of XIAP and above 54800 nM at BIR3 domain of XIAP (setting [1]).

`CN[C@@H](C)C(=O)N[C@H]1CN(C(=O)CS(C)(=O)=O)c2ccccc2N(Cc2c(OC(F)F)ccc3ccccc23)C1=O` [Example 83, (S)—N—((S)-1-((2-(Difluoromethoxy)naphthalen-1-yl)methyl)-5-(2-(methylsulfonyl)acetyl)-2-oxo-2,3,4,5-tetrahydro-1H-benzo[b][1,4]diazepin-3-yl)-2-(methylamino)propanamide hydrochloride]: the IC50 at BIR2 domain of XIAP was 121 nM; at BIR3 domain of XIAP (setting [1]), above 54800 nM.

Take `CN[C@@H](C)C(=O)N[C@H]1CN(C(=O)Cc2cccnc2)c2ccccc2N(Cc2c(OC)ccc3c(Br)cccc23)C1=O` [Example 88, (S)—N—((S)-1-((5-bromo-2-methoxynaphthalen-1-yl)methyl)-2-oxo-5-(2-(pyridin-3-yl)acetyl)-2,3,4,5-tetrahydro-1H-benzo[b][1,4]diazepin-3-yl)-2-(methylamino)propanamide hydrochloride]: the results for the IC50 on BIR2 domain of XIAP and at BIR3 domain of XIAP (setting [1]) were 14 nM and 39900 nM, respectively.

`CN[C@@H](C)C(=O)N[C@H]1CN(C(=O)c2cccc(C#N)c2)c2ccccc2N(Cc2c(OC)ccc3cc(Br)ccc23)C1=O` [Example 90c]: the IC50 at BIR2 domain of XIAP was 6 nM; on BIR3 domain of XIAP (setting [1]) it was 21800 nM.

In the case of `CN[C@@H](C)C(=O)N[C@H]1CN(C(=O)c2ccc(C(F)(F)F)cc2)c2ccccc2N(Cc2c(OC)ccc3cc(Br)ccc23)C1=O` [Example 91d], the IC50 on BIR2 domain of XIAP is 18 nM; on BIR3 domain of XIAP (setting [1]) it was above 54800 nM.

For the compound `CN[C@@H](C)C(=O)N[C@H]1CN(C(=O)c2ccc(C)cc2)c2ccccc2N(Cc2c(OC)ccc3c(Br)cccc23)C1=O` [Example 93, (S)—N—[(S)-1-(5-Bromo-2-methoxy-naphthalen-1-ylmethyl)-5-(4-methyl-benzoyl)-2-oxo-2,3,4,5-tetrahydro-1H-benzo[b][1,4]diazepin-3-yl]-2-methylamino-propionamide hydrochloride], the IC50 at BIR2 domain of XIAP is 18 nM; on BIR3 domain of XIAP (setting [1]), 47600 nM.

Regarding `CN[C@@H](C)C(=O)N[C@H]1CN(C(=O)c2ccc(C(C)(C)O)cc2)c2ccccc2N(Cc2c(OC)ccc3cc(Br)ccc23)C1=O` [Example 95, (S)—N—{(S)-1-(6-Bromo-2-methoxy-naphthalen-1-ylmethyl)-5-[4-(1-hydroxy-1-methyl-ethyl)-benzoyl]-2-oxo-2,3,4,5-tetrahydro-1H-benzo[b][1,4]diazepin-3-yl}-2-methylamino-propionamide trifluoroacetate], the IC50 at BIR2 domain of XIAP is 7 nM; at BIR3 domain of XIAP (setting [1]), 36300 nM.

With `CN[C@@H](C)C(=O)N[C@H]1CN(C(=O)c2ccc(C(=O)OC)cc2)c2ccccc2N(Cc2c(C)ccc3ccccc23)C1=O` [Example 96a, 4-[(S)-3-((S)-2-Methylamino-propionylamino)-5-(2-methyl-naphthalen-1-ylmethyl)-4-oxo-2,3,4,5-tetrahydro-benzo[b][1,4]diazepine-1-carbonyl]-benzoic acid methyl ester hydrochloride], the IC50 at BIR2 domain of XIAP was 99 nM; at BIR3 domain of XIAP (setting [1]), above 54800 nM.

In the case of `CN[C@@H](C)C(=O)N[C@H]1CN(C(=O)Cc2nnn[nH]2)c2ccccc2N(Cc2c(C)ccc3ccccc23)C1=O` [Example 96b], the results for the IC50 on BIR2 domain of XIAP and at BIR3 domain of XIAP (setting [1]) were 71 nM and 38800 nM, respectively.

With `CN[C@@H](C)C(=O)N[C@H]1CN(C(=O)CC2CCOCC2)c2ccccc2N(Cc2c(C)ccc3ccccc23)C1=O` [Example 96c], the IC50 was determined as 106 nM at BIR2 domain of XIAP and 28100 nM on BIR3 domain of XIAP (setting [1]).

For `CN[C@@H](C)C(=O)N[C@H]1CN(C(=O)c2ccc(C#N)cc2)c2ccccc2N(Cc2c(C)ccc3ccccc23)C1=O` [Example 96d], the IC50 is 46 nM on BIR2 domain of XIAP and above 54800 nM on BIR3 domain of XIAP (setting [1]).

Consider `CN[C@@H](C)C(=O)N[C@H]1CN(C(=O)CC2CCCCC2)c2ccccc2N(Cc2c(C)ccc3ccccc23)C1=O` [Example 96e], for which the figures for the IC50 at BIR2 domain of XIAP and at BIR3 domain of XIAP (setting [1]) were 685 nM and above 54800 nM, respectively.

For `CN[C@@H](C)C(=O)N[C@H]1CN(C(=O)Cc2cccnc2)c2ccccc2N(Cc2c(C)ccc3ccccc23)C1=O` [Example 96h], the IC50 on BIR2 domain of XIAP worked out at 23 nM; on BIR3 domain of XIAP (setting [1]) it was 13600 nM.

Turning to `CN[C@@H](C)C(=O)N[C@H]1CN(C(=O)c2ccc(F)cc2)c2ccccc2N(Cc2c(C)ccc3ccccc23)C1=O` [Example 96i], the IC50 at BIR2 domain of XIAP is 30 nM; on BIR3 domain of XIAP (setting [1]) it was 48000 nM.
